Data: patent publication US4277468A, “11-Methylene steroids, their preparation and pharmaceutical preparations containing them” (Schering Aktiengesellschaft, priority 1979, dated 1981)

Legend:
Androgenic side effects = conditions: in words, relative to B
ovulation = assay: Ovulation inhibition test on rats, subcutaneous application, determined by tubal inspection; assay type: in vivo
Method: OVULATION INHIBITION IN RATS AFTER
SUBCUTANEOUS APPLICATION
The ovulation inhibition was determined by tubal inspection.

Compound	Androgenic side effects compared with B (Androgenic side effects)	Ovulation inhibition in rats after subcutaneous application (% inhibition) (ovulation; dose 0.03 mg) [%]	Ovulation inhibition in rats after subcutaneous application (% inhibition) (ovulation; dose 0.1 mg) [%]	Ovulation inhibition strength relative to ethynyl compound B (ovulation; seen from the table)
C=C1C[C@@]2(CC)[C@@H](CC[C@@]2(O)C#CCl)[C@@H]2CCC3=CC(=O)CC[C@@H]3[C@@H]12 [A, 17α-chloroethynyl-17β-hydroxy-18-methyl-11-methylene-4-estren-3-one]	less androgenic side effects than B	83	100	at least three times stronger than ethynyl compound B
C#C[C@]1(O)CC[C@H]2[C@@H]3CCC4=CC(=O)CC[C@@H]4[C@H]3C(=C)C[C@@]21CC [B, 17α-ethynyl-17β-hydroxy-18-methyl-11-methylene-4-estren-3-one, reference compound]		0	100	
